In patent US10596224B2, “Method of treating a wound, comprising the step of administering a composition including a substance P” (Biosolution Co., Ltd, priority 2016, dated 2020):
“Also recorded” adds a separate entry of the source. Like-named read-outs stand apart in the source and are kept apart here.

Columns and labels:
[1] = Stability of SP over time in cell growth media KGM and FGM (SP ELISA kit); assay type: physicochemical; details: stored in KGM and FGM media, 0-24 hrs
Protocol: SP and SP of SP+HEC+polysorbate 80+sodium thiosulfate formulation were stored in cell growth media for human epithelial keratinocyte (HEK) culture (keratinocyte growth media; KGM) and human dermal fibroblast (HDF) culture (fibroblast growth media; FGM).
Each sample was taken out of the media after a predetermined period of time (0 hr, 3 hrs, 6 hrs, 12 hrs and 24 hrs), and diluted with phosphate buffered saline, and then the SP content in each sample was analyzed using SP ELISA kit.

[2] = tested on: full-thickness skin wound models; experiment: Epidermal regeneration effect (epidermal gaps, H&E) in skin wound mouse model; assay type: in vivo, BALB/c female mice; details: 6 days after administration, compared to the control groups
From the text: (§1) Commercially available wound healing agents, Madecassol care ointment (Dongguk Pharmaceuticals, Korea) and Easyef cell regenerating ointment (Daewoong Pharmaceuticals) were used as positive control groups.
(§2) In detail, 7-week-old BALB/c female mice (DooYeol Biotech) were acclimated for 1 week, and then anesthetized by an intraperitoneal injection of a mixture of Ketamine and rumpun. The dorsal hair was removed using an electric razor and a hair removal cream (Veet). Povidone and 70% ethanol were used to disinfect the area from which the epidermis was to be removed, and a 5-mm biopsy punch was used to apply a full-thickness wound on both sides of the lower buttocks, while avoiding the spine of the mouse. To prevent spontaneous wound contraction by the superficial muscle of the mouse, a silicone ring with an outer diameter of 15 mm and an inner diameter of 8 mm was attached around the wounded area using suture threads.
(§3) Thereafter, to the wound site, phosphate buffered saline as the negative control was administered, and Madecassol care and Easyef cell regenerating ointments as the positive controls were administered. […] Specifically, each 30 μl of SP and each novel formulations were administered to the full-thickness wound once a day for 5 days.

[3] = tested on: human dermal fibroblast cells; details: for cell proliferation rate: 48 hours, MTT
Protocol: The cell proliferative effect of SP was analyzed by MTT assay.
In detail, 100 μl of a human dermal fibroblast cell suspension of 3×10^4 CFU/ml was put in a 96-well culture plate, and incubated for 24 hours. FGM medium (fibroblast growth medium; fibroblast basal medium containing hFGF-B, insulin, fetal bovine serum (FBS), gentamicin, and amphotericin-B) were removed, and then 180 μl of fresh FGM medium was dispensed into each well, and then 20 μl of SP diluted with phosphate buffered saline (PBS) was inoculated by varying its concentration (0.1, 1, 5, 10, 50, and 100 μg/ml).
Meanwhile, 20 μl of phosphate buffered saline was used as a negative control group. After inoculation, cells were incubated at 37° C. for 48 hours, and then the medium, SP, and negative control group were removed. The cells were washed with the phosphate buffered saline three times. 90 μl of FGM medium was mixed with 10 μl of MTT solution (0.5 mg/ml), and treated to each well, and allowed to react at 37° C. for 4 hours.
Finally, the cells were washed with the phosphate buffered saline, and stirred in 150 μl of isopropyl alcohol solution for 10 minutes, and absorbance at 570 nm was measured.

[4] = tested on: full-thickness skin wound models; experiment: Angiogenic effect in skin wound mouse model; assay type: in vivo, BALB/c female mice; details: biopsy 6 days after administration, FIG. 5
From the text: In detail, increased angiogenesis was confirmed by examining an image of angiogenesis on the skin tissue with the naked eye after biopsy of the skin tissue of the wound area 6 days after administration of the novel formulations.

[5] = Stability of SP at different storage temperatures (SP ELISA kit); assay type: physicochemical; details: stored at 60° C., 37° C., RT, and 4° C. for 4 weeks
Protocol: Further, it was examined with respect to whether SP stability in each sample was maintained at different temperatures. […] The samples before storage were used as control groups. SP stability was analyzed using SP ELISA kit.

[6] = tested on: full-thickness skin wound models; experiment: Granulation tissue maturation (H&E) in skin wound mouse model; assay type: in vivo, BALB/c female mice; details: 6 days after administration, compared to the negative control group
From the text: as §1, §2, §3

[7] = tested on: full-thickness skin wound models; experiment: Wound size-reducing effect in skin wound mouse model; assay type: in vivo, BALB/c female mice; details: 6 days after administration
From the text: as §1, §2
Thereafter, to the wound site, phosphate buffered saline as the negative control was administered, and Madecassol care and Easyef cell regenerating ointments as the positive controls were administered. […]
In detail, the reduced wound size was calculated as the size of wound area by analyzing an image of the wound at 0 day and 6 days after administration of the novel formulations. The size of wound area was quantified by using Photoshop.

SMILES: CSCC[C@H](NC(=O)[C@H](CC(C)C)NC(=O)CNC(=O)[C@H](Cc1ccccc1)NC(=O)[C@H](Cc1ccccc1)NC(=O)[C@H](CCC(N)=O)NC(=O)[C@H](CCC(N)=O)NC(=O)[C@@H]1CCCN1C(=O)[C@H](CCCCN)NC(=O)[C@@H]1CCCN1C(=O)[C@@H](N)CCCNC(=N)N)C(N)=O [SP]
- SP content over time (SP stability) [1]: reduction in the SP content over time
- epidermal gaps [2]: about 60%
- cytotoxicity [3]: without cytotoxicity
- cell proliferation rate ([3]; SP 5 μg/ml): ≥ 200%
- proliferation rate compared to the negative control group ([3]; SP 5 μg/ml, negative control phosphate buffered saline): ≥ 2.2 times
- cell proliferation rate ([3]; all concentration groups of 0.1 μg/ml to 100 μg/ml SP): ≥ 170%
- angiogenesis on the skin tissue (naked eye) [4]: insignificant
- SP content according to temperature conditions (SP stability) [5]: lower SP content than the SP+HEC+polysorbate 80+sodium thiosulfate formulation; also recorded: changes in the SP content according to temperature changes
- granulation tissue maturation [6]: compact granulation tissue formation
- size of the wound examined with the naked eye [7]: no significant difference in the wound size; also recorded: slight difference
- wound area (size of wound area quantified) ([7]; 30 μl once a day for 5 days, topical to wound): ≥ 40%
